Results on 40 compounds are retold here after patent US20240279236A1, “COMPOUNDS AND METHODS OF TREATING TUBERCULOSIS” (Fimbrion Therapeutics, Inc., priority 2021, published 2024).

This assay deals with WT Mtb Erdman strain. Nature of the assay: Microplate Alamar Blue Assay (MABA), Mtb growth inhibition. Type of assay: cell-based, Mycobacterium tuberculosis. The note with it: Mycobacterium tuberculosis, ERDMAN, 168 h, Middlebrook 7H9 media, 7 days at 37° C. in 5% CO2. In general terms: The colour change of resazurin is a common sign of viable cells or microbes.

The term IC50 denotes the concentration that inhibits the measured activity by half. Higher therefore signals weaker potency in that assay.

Structures are written as SMILES.

Turning to `Cc1cc2c(N[C@H]3C[C@@H]3c3ccccc3)nc(C(F)(F)F)nc2s1` [Example 168, 6-methyl-N-((1S,2R)-2-phenylcyclopropyl)-2-(trifluoromethyl) thieno[2,3-d] pyrimidin-4-amine], half-maximal inhibition (IC50) required 3200 nM.

The compound `Cc1cc2c(NC(CCc3ccccc3)C(F)(F)F)nc(C(F)(F)F)nc2s1` (stereo not shown) [Example 169, 6-methyl-N-(1,1,1-trifluoro-4-phenylbutan-2-yl)-2-(trifluoromethyl) thieno[2,3-d] pyrimidin-4-amine] came in with a half-inhibitory concentration (IC50) of more than 10000 nM. With `CCc1nc(NCCC(c2ccccc2)c2ccccc2)c2cc(C)sc2n1` [Example 170, N-(3,3-diphenylpropyl)-2-ethyl-6-methylthieno[2,3-d]pyrimidin-4-amine] the figure was 360 nM; with `Cc1cc2c(NCCC(O)c3ccccc3)nc(C(F)(F)F)nc2s1` (stereo not shown) [Example 171, 3-((6-methyl-2-(trifluoromethyl)thieno [2,3-d]pyrimidin-4-yl)amino)-1-phenylpropan-1-ol], more than 9500 nM.

With `Cc1cc2c(NCCCN(C)c3ccccc3)nc(C(F)(F)F)nc2s1` [Example 172, N1-methyl-N3-(6-methyl-2-(trifluoromethyl)thieno[2,3-d]pyrimidin-4-yl)-N1-phenylpropane-1,3-diamine], 4200 nM corresponded to half-maximal inhibition (IC50).

Turning to `Cc1cc2c(NCCCNc3ccccc3)nc(C(F)(F)F)nc2s1` [Example 173, N1-(6-methyl-2-(trifluoromethyl)thieno[2,3-d]pyrimidin-4-yl)-N3-phenylpropane-1,3-diamine], the midpoint of inhibition, the IC50, lay at 3300 nM.

In turn, `Cc1cc2c(NCCCn3ccc4ccccc43)nc(C(F)(F)F)nc2s1` [Example 177, N-(3-(1H-indol-1-yl)propyl)-6-methyl-2-(trifluoromethyl) thieno[2,3-d] pyrimidin-4-amine] came in with an IC50 of 4700 nM. Next, `Cc1cc2c(NCCCc3ccc(N(C)C)cc3)nc(C(F)(F)F)nc2s1` [Example 178, N-(3-(4-(dimethylamino)phenyl)propyl)-6-methyl-2-(trifluoromethyl) thieno[2,3-d] pyrimidin-4-amine]: 1300 nM; `Cc1cc2c(NCCCc3cccc(C(F)(F)F)c3)nc(C(F)(F)F)nc2s1` [Example 179, 6-methyl-2-(trifluoromethyl)-N-(3-(3-(trifluoromethyl)phenyl)propyl) thieno[2,3-d] pyrimidin-4-amine]: 1700 nM.

Regarding `Cc1cc2c(NCCc3ccc4ccccc4n3)nc(C(F)(F)F)nc2s1` [Example 180, 6-methyl-N-(2-(quinolin-2-yl)ethyl)-2-(trifluoromethyl) thieno[2,3-d] pyrimidin-4-amine], the half-maximal inhibitory concentration (IC50) was more than 10000 nM. With `Cc1cc2c(N[C@@H]3C[C@H]3c3ccc(F)cc3)nc(C(F)(F)F)nc2s1` [Example 181, N-((1R,2S)-2-(4-fluorophenyl)cyclopropyl)-6-methyl-2-(trifluoromethyl) thieno[2,3-d] pyrimidin-4-amine] the figure was 1300 nM. With `Cc1cc2c(NCCC(=O)Nc3ccccc3)nc(C(F)(F)F)nc2s1` [Example 182, 3-((6-methyl-2-(trifluoromethyl)thieno[2,3-d]pyrimidin-4-yl)amino)-N-phenylpropanamide] the figure was more than 10000 nM; with `Cc1cc2c(NCCn3cccc3)nc(C(F)(F)F)nc2s1` [Example 183, N-(2-(1H-pyrrol-1-yl)ethyl)-6-methyl-2-(trifluoromethyl) thieno[2,3-d]pyrimidin-4-amine], more than 10000 nM. Next, `Cc1cc2c(NCCCc3ccc(O)cc3)nc(C(F)(F)F)nc2s1` [Example 184, 4-(3-((6-methyl-2-(trifluoromethyl)thieno[2,3-d]pyrimidin-4-yl)amino)propyl) phenol]: more than 10000 nM. As for `Cc1cc2c(NCCCc3ccc(F)cc3)nc(C(F)(F)F)nc2s1` [Example 185, N-(3-(4-fluorophenyl)propyl)-6-methyl-2-(trifluoromethyl) thieno[2,3-d] pyrimidin-4-amine], the IC50 came out at 2300 nM.

In the case of `Cc1cc2c(NCC(C)(C)Cc3ccccc3)nc(C(F)(F)F)nc2s1` [Example 186, N-(2,2-dimethyl-3-phenylpropyl)-6-methyl-2-(trifluoromethyl) thieno[2,3-d] pyrimidin-4-amine], the IC50 is more than 10000 nM. `Cc1cc2c(NCCC(C)c3ccccc3)nc(C(F)(F)F)nc2s1` (stereo not shown) [Example 187, 6-methyl-N-(3-phenylbutyl)-2-(trifluoromethyl) thieno[2,3-d] pyrimidin-4-amine] yielded a half-maximal inhibitory concentration (IC50) of 9100 nM. With `Cc1cc2c(NCCCc3ccccc3F)nc(C(F)(F)F)nc2s1` [Example 188, N-(3-(2-fluorophenyl)propyl)-6-methyl-2-(trifluoromethyl) thieno[2,3-d] pyrimidin-4-amine] the figure was 5100 nM; with `CCc1nc(NCCCc2ccccc2OC)c2cc(C)sc2n1` [Example 189, 2-ethyl-N-(3-(2-methoxyphenyl)propyl)-6-methylthieno[2,3-d]pyrimidin-4-amine], 2800 nM; with `CCc1nc(NCCCc2cccc(C(F)(F)F)c2)c2cc(C)sc2n1` [Example 190, 2-ethyl-6-methyl-N-(3-(3-(trifluoromethyl)phenyl)propyl) thieno[2,3-d] pyrimidin-4-amine], 550 nM. Take `CCc1nc(NCCCc2ccc(F)cc2)c2cc(C)sc2n1` [Example 191, 2-ethyl-N-(3-(4-fluorophenyl)propyl)-6-methylthieno[2,3-d]pyrimidin-4-amine]: 360 nM corresponded to half-maximal inhibition (IC50). Next, `CCc1nc(NCCCN2CCCc3ccccc32)c2cc(C)sc2n1` [Example 192, N-(3-(3,4-dihydroquinolin-1(2H)-yl)propyl)-2-ethyl-6-methylthieno[2,3-d]pyrimidin-4-amine]: 930 nM; `CCc1nc(NCC#Cc2ccccc2)c2cc(C)sc2n1` [Example 193, 2-ethyl-6-methyl-N-(3-phenylprop-2-yn-1-yl)thieno[2,3-d]pyrimidin-4-amine]: 1800 nM; `CCc1nc(NCC(O)Cc2ccccc2)c2cc(C)sc2n1` (stereo not shown) [Example 194, 1-((2-ethyl-6-methylthieno[2,3-d]pyrimidin-4-yl)amino)-3-phenylpropan-2-ol]: more than 10000 nM. Next, `CCc1nc(NCCCN(C)c2ccccc2)c2cc(C)sc2n1` [Example 195, N1-(2-ethyl-6-methylthieno[2,3-d]pyrimidin-4-yl)-N3-methyl-N3-phenylpropane-1,3-diamine]: 680 nM; `CCc1nc(NCCCn2ccc3ccccc32)c2cc(C)sc2n1` [Example 196, N-(3-(1H-indol-1-yl)propyl)-2-ethyl-6-methylthieno[2,3-d]pyrimidin-4-amine]: 450 nM. With `CCc1nc(NCCCn2cccn2)c2cc(C)sc2n1` [Example 197, N-(3-(1H-pyrazol-1-yl)propyl)-2-ethyl-6-methylthieno[2,3-d]pyrimidin-4-amine] the figure was 8200 nM; with `CCc1nc(NCCCc2cccc3ccccc23)c2cc(C)sc2n1` [Example 198, 2-ethyl-6-methyl-N-(3-(naphthalen-1-yl)propyl)thieno[2,3-d]pyrimidin-4-amine], 170 nM; with `CCc1nc(NCCCc2ccc(Br)cc2)c2cc(C)sc2n1` [Example 199, N-(3-(4-bromophenyl)propyl)-2-ethyl-6-methylthieno[2,3-d]pyrimidin-4-amine], 120 nM. `CCc1nc(NCCCc2ccccc2F)c2cc(C)sc2n1` [Example 200, 2-ethyl-N-(3-(2-fluorophenyl)propyl)-6-methylthieno[2,3-d]pyrimidin-4-amine]: the midpoint of inhibition, the IC50, lay at 650 nM. Next, `CCc1nc(NCCCc2ccc(Oc3ccccc3)cc2)c2cc(C)sc2n1` [Example 201, 2-ethyl-6-methyl-N-(3-(4-phenoxyphenyl)propyl)thieno[2,3-d]pyrimidin-4-amine]: 610 nM. Next, `CCc1nc(NCCCc2cccc(Br)c2)c2cc(C)sc2n1` [Example 202, N-(3-(3-bromophenyl)propyl)-2-ethyl-6-methylthieno[2,3-d]pyrimidin-4-amine]: 260 nM; `CCc1nc(NCCCc2ccc(C(C)(C)C)cc2)c2cc(C)sc2n1` [Example 203, N-(3-(4-(tert-butyl)phenyl)propyl)-2-ethyl-6-methylthieno[2,3-d]pyrimidin-4-amine]: 89 nM. Turning to `Cc1cc2c(NCCCc3ccc(Br)cc3)nc(C(F)(F)F)nc2s1` [Example 204, N-(3-(4-bromophenyl)propyl)-6-methyl-2-(trifluoromethyl) thieno[2,3-d] pyrimidin-4-amine], the half-inhibitory concentration (IC50) is 1900 nM. This IC50 lies about 21-fold higher than the previous one. Next, `Cc1cc2c(NCCCc3cccc4ccccc34)nc(C(F)(F)F)nc2s1` [Example 205, 6-methyl-N-(3-(naphthalen-1-yl)propyl)-2-(trifluoromethyl) thieno[2,3-d] pyrimidin-4-amine]: 1200 nM. Next, `Cc1cc2c(NCCCc3ccc(C(C)(C)C)cc3)nc(C(F)(F)F)nc2s1` [Example 206, N-(3-(4-(tert-butyl)phenyl)propyl)-6-methyl-2-(trifluoromethyl) thieno[2,3-d] pyrimidin-4-amine]: 260 nM; `Cc1cc2c(NCCCCc3ccc(Br)cc3)nc(-c3ccoc3)nc2s1` [Example 207, N-(4-(4-bromophenyl)butyl)-2-(furan-3-yl)-6-methylthieno[2,3-d]pyrimidin-4-amine]: 350 nM; `Cc1cc2c(NCCCN3CCN(c4ccccc4)CC3)nc(-c3ccoc3)nc2s1` [Example 208, 2-(furan-3-yl)-6-methyl-N-(3-(4-phenylpiperazin-1-yl)propyl)thieno[2,3-d]pyrimidin-4-amine]: 3200 nM. Next, `Cc1cc2c(NCCN3CCN(c4ccccc4)CC3)nc(-c3ccoc3)nc2s1` [Example 209, 2-(furan-3-yl)-6-methyl-N-(2-(4-phenylpiperazin-1-yl)ethyl)thieno[2,3-d]pyrimidin-4-amine]: 4900 nM. For the compound `Cc1cc2c(NCCC(=O)N3CCN(c4ccccc4)CC3)nc(-c3ccoc3)nc2s1` [Example 210, 3-((2-(furan-3-yl)-6-methylthieno[2,3-d]pyrimidin-4-yl)amino)-1-(4-phenylpiperazin-1-yl)propan-1-one], the concentration for half-maximal inhibition (IC50) came to 8200 nM.
